PubChem BioAssay (NCI)
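Following 48 hours of exposure in 96-well plates, responses at five concentrations were used to interpolate endpoints linearly. TGI denotes the concentration required for complete inhibition of growth.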

Columns and labels:
Assay in all cases: inhibition of tumour cell growth, NCI panel, 48 h
[1] = tested on: CCRF-CEM leukemia
[2] = tested on: HOP-92 NSCLC
[3] = tested on: A549 NSCLC
[4] = tested on: OVCAR-8 ovarian
[5] = tested on: K-562 leukemia
[6] = tested on: HOP-62 NSCLC
[7] = tested on: OVCAR-4 ovarian
[8] = tested on: T-47D breast
[9] = tested on: UACC-257 melanoma
[10] = tested on: MOLT-4 leukemia
[11] = tested on: NCI-H226 lung
[12] = tested on: DU-145 prostate
[13] = tested on: COLO 205 colon
[14] = tested on: SF-539 CNS
[15] = tested on: 786-0 renal
[16] = tested on: U251 CNS
[17] = tested on: UO-31 renal
[18] = tested on: BT-549 breast
[19] = tested on: MDA-MB-231 breast
[20] = tested on: SF-268 CNS
[21] = tested on: NCI-H522 lung
[22] = tested on: OVCAR-5 ovarian
[23] = tested on: ACHN renal
[24] = tested on: NCI/ADR-RES ovarian
[25] = tested on: MDA-N
[26] = tested on: KM12 colon
[27] = tested on: M14 melanoma
[28] = tested on: MALME-3M melanoma
[29] = tested on: NCI-H23 lung
[30] = tested on: SK-MEL-2 melanoma
[31] = tested on: EKVX NSCLC
[32] = tested on: TK-10 renal
[33] = tested on: CAKI-1 renal
[34] = tested on: HT29 colon
[35] = tested on: MCF7 breast
[36] = tested on: OVCAR-3 ovarian
[37] = tested on: RPMI-8226 leukemia
[38] = tested on: RXF 393 renal
[39] = tested on: SR leukemia
[40] = tested on: SW-620 colon
[41] = tested on: HL-60(TB) leukemia
[42] = tested on: NCI-H460 lung
[43] = tested on: PC-3 prostate
[44] = tested on: SF-295 CNS
[45] = tested on: IGROV1 ovarian
[46] = tested on: LOX IMVI melanoma
[47] = tested on: SK-MEL-5 melanoma
[48] = tested on: MDA-MB-435
[49] = tested on: UACC-62 melanoma
[50] = tested on: SK-OV-3 ovarian
[51] = tested on: SN12C renal
[52] = tested on: HCT-116 colon
[53] = tested on: SK-MEL-28 melanoma
[54] = tested on: SNB-75 CNS
[55] = tested on: HCT-15 colon
[56] = tested on: HCC-2998 colon
[57] = tested on: HS 578T breast
[58] = tested on: SNB-19 CNS

Question: Which TGI [1] does the source give for `Cc1c(N2C(=O)C(Cl)C2c2ccc(Cl)cc2)c(=O)n(-c2ccccc2)n1C` (stereo not given) here?
Answer: > 100 µM

Question: And the TGI [2]?
Answer: > 100 µM

Question: And the TGI [3]?
Answer: > 100 µM

Question: What about the TGI [4] of the same compound?
Answer: > 100 µM

Question: What about the TGI [5] of the same compound?
Answer: > 100 µM

Question: What about the TGI [6] of the same compound?
Answer: > 100 µM

Question: And the TGI [7]?
Answer: > 100 µM

Question: What about the TGI [8] of the same compound?
Answer: > 100 µM

Question: And the TGI [9]?
Answer: 48.1 µM

Question: And the TGI [10]?
Answer: > 100 µM

Question: What about the TGI [11] of the same compound?
Answer: > 100 µM

Question: What about the TGI [12] of the same compound?
Answer: > 100 µM

Question: And the TGI [13]?
Answer: > 100 µM

Question: What about the TGI [14] of the same compound?
Answer: > 100 µM

Question: And the TGI [15]?
Answer: > 100 µM

Question: And the TGI [16]?
Answer: > 100 µM

Question: What about the TGI [17] of the same compound?
Answer: > 100 µM

Question: And the TGI [18]?
Answer: > 100 µM

Question: And the TGI [19]?
Answer: > 100 µM

Question: What about the TGI [20] of the same compound?
Answer: > 100 µM

Question: And the TGI [21]?
Answer: > 100 µM

Question: What about the TGI [22] of the same compound?
Answer: > 100 µM

Question: And the TGI [23]?
Answer: 83.2 µM

Question: And the TGI [24]?
Answer: > 100 µM

Question: What about the TGI [25] of the same compound?
Answer: 81.3 µM

Question: What about the TGI [26] of the same compound?
Answer: > 100 µM

Question: What about the TGI [27] of the same compound?
Answer: > 100 µM

Question: What about the TGI [28] of the same compound?
Answer: > 100 µM

Question: What about the TGI [29] of the same compound?
Answer: 85.1 µM

Question: What about the TGI [30] of the same compound?
Answer: > 100 µM

Question: What about the TGI [31] of the same compound?
Answer: > 100 µM

Question: And the TGI [32]?
Answer: > 100 µM

Question: And the TGI [33]?
Answer: > 100 µM

Question: And the TGI [34]?
Answer: > 100 µM

Question: What about the TGI [35] of the same compound?
Answer: > 100 µM

Question: What about the TGI [36] of the same compound?
Answer: > 100 µM

Question: What about the TGI [37] of the same compound?
Answer: 42.6 µM

Question: What about the TGI [38] of the same compound?
Answer: > 100 µM

Question: And the TGI [39]?
Answer: > 100 µM

Question: And the TGI [40]?
Answer: > 100 µM

Question: And the TGI [41]?
Answer: > 100 µM

Question: What about the TGI [42] of the same compound?
Answer: > 100 µM

Question: And the TGI [43]?
Answer: > 100 µM

Question: And the TGI [44]?
Answer: > 100 µM

Question: And the TGI [45]?
Answer: > 100 µM

Question: And the TGI [46]?
Answer: 91.6 µM

Question: What about the TGI [47] of the same compound?
Answer: > 100 µM

Question: What about the TGI [48] of the same compound?
Answer: 59.8 µM

Question: What about the TGI [49] of the same compound?
Answer: > 100 µM

Question: What about the TGI [50] of the same compound?
Answer: > 100 µM

Question: And the TGI [51]?
Answer: > 100 µM

Question: What about the TGI [52] of the same compound?
Answer: 36 µM

Question: For `CC[n+]1[b-](C(C)(C)C)n(/N=C/C(C)(C)C)[b-](C(C)(C)C)[n+]1CC`, which TGI [1] is on record?
Answer: > 100 µM

Question: What about the TGI [3] of the same compound?
Answer: > 100 µM

Question: What about the TGI [4] of the same compound?
Answer: > 100 µM

Question: What about the TGI [5] of the same compound?
Answer: > 100 µM

Question: And the TGI [53]?
Answer: > 100 µM

Question: What about the TGI [6] of the same compound?
Answer: > 100 µM

Question: And the TGI [7]?
Answer: > 100 µM

Question: What about the TGI [8] of the same compound?
Answer: > 100 µM

Question: What about the TGI [9] of the same compound?
Answer: > 100 µM

Question: What about the TGI [10] of the same compound?
Answer: > 100 µM

Question: What about the TGI [11] of the same compound?
Answer: > 100 µM

Question: What about the TGI [54] of the same compound?
Answer: > 100 µM

Question: And the TGI [13]?
Answer: > 100 µM

Question: And the TGI [55]?
Answer: > 100 µM

Question: And the TGI [14]?
Answer: > 100 µM

Question: What about the TGI [15] of the same compound?
Answer: > 100 µM

Question: What about the TGI [16] of the same compound?
Answer: > 100 µM

Question: What about the TGI [17] of the same compound?
Answer: > 100 µM

Question: And the TGI [18]?
Answer: > 100 µM

Question: And the TGI [19]?
Answer: > 100 µM

Question: And the TGI [20]?
Answer: > 100 µM

Question: And the TGI [21]?
Answer: > 100 µM

Question: What about the TGI [22] of the same compound?
Answer: > 100 µM

Question: And the TGI [23]?
Answer: > 100 µM

Question: What about the TGI [24] of the same compound?
Answer: > 100 µM

Question: What about the TGI [25] of the same compound?
Answer: > 100 µM

Question: And the TGI [26]?
Answer: > 100 µM

Question: What about the TGI [27] of the same compound?
Answer: > 100 µM

Question: And the TGI [28]?
Answer: > 100 µM

Question: What about the TGI [29] of the same compound?
Answer: > 100 µM

Question: And the TGI [30]?
Answer: > 100 µM

Question: What about the TGI [31] of the same compound?
Answer: > 100 µM

Question: What about the TGI [32] of the same compound?
Answer: > 100 µM

Question: And the TGI [33]?
Answer: > 100 µM

Question: And the TGI [34]?
Answer: > 100 µM

Question: What about the TGI [56] of the same compound?
Answer: > 100 µM

Question: And the TGI [35]?
Answer: > 100 µM

Question: And the TGI [36]?
Answer: > 100 µM

Question: What about the TGI [38] of the same compound?
Answer: > 100 µM

Question: And the TGI [39]?
Answer: > 100 µM

Question: And the TGI [40]?
Answer: > 100 µM

Question: And the TGI [42]?
Answer: > 100 µM

Question: What about the TGI [43] of the same compound?
Answer: > 100 µM

Question: What about the TGI [44] of the same compound?
Answer: > 100 µM

Question: What about the TGI [45] of the same compound?
Answer: > 100 µM

Question: What about the TGI [46] of the same compound?
Answer: > 100 µM

Question: And the TGI [47]?
Answer: > 100 µM

Question: What about the TGI [57] of the same compound?
Answer: > 100 µM

Question: What about the TGI [48] of the same compound?
Answer: > 100 µM

Question: What about the TGI [49] of the same compound?
Answer: > 100 µM

Question: And the TGI [51]?
Answer: > 100 µM

Question: And the TGI [58]?
Answer: > 100 µM

Question: And the TGI [52]?
Answer: > 100 µM
